Laboratory results published in publication PMC4939265, “Synthesis, Molecular Modeling, and Biological Evaluation of Novel Tetrahydro-β-Carboline Hydantoin and Tetrahydro-β-Carboline Thiohydantoin Derivatives as Phosphodiesterase 5 Inhibitors” (International Journal of Medicinal Chemistry, 2011).
Like-named read-outs stand apart in the source and are kept apart here.

Key:
[1] = target: T1, recombinant human PDE5 (Homo sapiens, UniProt O76074); assay: IMAP fluorescence polarization phosphodiesterase assay (TAMRA-cGMP substrate); type: biochemical; settings: for inhibition at 10 µM: read-out: %PDE5 inhibition at 10 μM; for IC50: 10 concentrations, at least two replicates per concentration, read-out: PDE5 inhibition IC50; for PDE5 inhibition, result in words: SAR discussion
T1 construct: purchased BPS Biosciences, San Diego, CA
Method: PDE activity was measured using a modification of the IMAP fluorescence polarization phosphodiesterase assay from Molecular Devices. The assay was modified to use tetramethylrhodamine- (TAMRA-) cGMP as substrate. PDE hydrolysis of the fluorescent labeled substrate allows it to bind the IMAP binding reagent, which results in increased FP. […] The assays were performed in 96-well microtiter plates using a reaction buffer containing 10 mM Tris-HCl (pH 7.2), 10 mM MgCl2, 0.05% NaN3, and 0.1% phosphate-free BSA as the carrier. Each well contained 20 μL of recombinant enzyme (5 units//mL, BPS Biosciences, San Diego, CA) and 10 μL test agent. The reaction was initiated by the addition of 10 μL of a substrate solution containing 50 nM TAMRA-cGMP. After incubating at room temperature for 60 minutes, the reaction was terminated by adding 120 μL of binding solution. FP was measured by a Perkin Elmer Envision plate reader.
Dose response curves were analyzed using Prism 4 software (GraphPad) to calculate IC50 values using a four-parameter logistic equation. All in vitro experiments involved dose-response analysis were repeated at least twice to confirm reproducibility of IC50 values.

[2] = screening dose 10 μM, triplicate

inhibition at 10 µM [1, 2] [%]	melting point [°C]	IC50 [1] [nM]	PDE5 inhibition, result in words [1]	SMILES	inhibition at 10 µM [1] [%]
63	134 to 136			COc1ccc([C@@H]2c3[nH]c4ccccc4c3C[C@@H]3C(=O)N(c4ccc(Cl)cc4)C(=O)N23)c(OC)c1 [Compound 13, (5R,11aR)-2-(P-Chlorophenyl)-5-(2,4-dimethoxyphenyl)-5,6,11,11a-tetrahydro-1H-imidazo[5,1-6,1]pyrido[3,4-b]indole-1,3-dione]	
87	193 to 195	550	active PDE5 inhibitors	COc1ccc([C@@H]2c3[nH]c4ccccc4c3C[C@H]3C(=O)N(C(C)(C)C)C(=O)N23)c(OC)c1 [Compound 12, (5R,11aS)-2-Tertiarybutyl-5-(2,4-dimethoxyphenyl)-5,6,11,11a-tetrahydro-1-H-imidazo[5,1-6,1]pyrido[3,4-b]indole-1,3-dione]	
88	190 to 193	720	active	CCN1C(=O)[C@H]2Cc3c([nH]c4ccccc34)[C@H](c3ccc(OC)cc3OC)N2C1=O [Compound 6, (5S,11aR)-2-Ethyl-5-(2,4-dimethoxyphenyl)-5,6,11,11a-tetrahydro-1-H-imidazo[5,1-6,1]pyrido[3,4-b]indole-1,3-dione]	
68	191 to 193			COc1ccc([C@H]2c3[nH]c4ccccc4c3C[C@@H]3C(=O)N(C(C)(C)C)C(=O)N23)c(OC)c1 [Compound 10, (5S,11aR)-2-Tertiarybutyl-5-(2,4-dimethoxyphenyl)-5,6,11,11a-tetrahydro-1-H-imidazo[5,1-6,1]pyrido[3,4-b]indole-1,3-dione]	
35	135 to 138			COc1ccc([C@H]2c3[nH]c4ccccc4c3C[C@H]3C(=O)N(c4ccc(Cl)cc4)C(=O)N23)c(OC)c1 [Compound 15, (5S,11aS)-2-(P-Chlorophenyl)-5-(2,4-dimethoxyphenyl)-5,6,11,11a-tetrahydro-1-H-imidazo[5,1-6,1]pyrido[3,4-b]indole-1,3-dione]	
87	216 to 218	360	active PDE5 inhibitors	CCN1C(=O)[C@H]2Cc3c([nH]c4ccccc34)[C@@H](c3ccc(OC)cc3OC)N2C1=O [Compound 5, (5R,11aR)-2-Ethyl-5-(2,4-dimethoxyphenyl)-5,6,11,11a-tetrahydro-1-H-imidazo[5,1-6,1]pyrido[3,4-b]indole-1,3-dione]	
87	224 to 227	560		C=CCN1C(=O)[C@@H]2Cc3c([nH]c4ccccc34)[C@@H](c3ccc(OC)cc3OC)N2C1=S [Compound 19, (5R,11aS)-2-Allyl-1-oxo-5-(2,4-dimethoxyphenyl)-5,6,11,11a-tetrahydro-1H-imidazo[5,1-1,6]pyrido[3,4-b]indole-3(2H)-thione]	
63	212 to 215			COc1ccc([C@@H]2c3[nH]c4ccccc4c3C[C@H]3C(=O)N(c4ccc(Cl)cc4)C(=O)N23)c(OC)c1 [Compound 16, (5R,11aS)-2-(P-Chlorophenyl)-5-(2,4-dimethoxyphenyl)-5,6,11,11a-tetrahydro-1-H-imidazo[5,1-6,1]pyrido[3,4-b]indole-1,3-dione]	
77	86 to 88	2500		COC(=O)[C@H]1Cc2c([nH]c3ccccc23)[C@@H](c2ccc(OC)cc2OC)N1 [Compound 1, (1R, 3R) Methyl-1-(2,4-dimethoxyphenyl)-2,3,4,9-tetrahydro-1-H-pyrido[3,4-b]indole-3-carboxylate]	
23	188 to 190			COc1ccc([C@H]2c3[nH]c4ccccc4c3C[C@@H]3C(=O)N(C)C(=S)N23)c(OC)c1 [Compound 18, (5S,11aR)-2-Methyl-1-oxo-5-(2,4-dimethoxyphenyl)-5,6,11,11a-tetrahydro-1-H-imidazo[5,1-1,6]pyrido[3,4-b]indole-3(2H)-thione]	
63	146 to 147			COC(=O)[C@H]1Cc2c([nH]c3ccccc23)[C@H](c2ccc(OC)cc2OC)N1 [Compound 2, (1S,3R) Methyl-1-(2,4-dimethoxyphenyl)-2,3,4,9-tetrahydro-1-H-pyrido[3,4-b]indole-3-carboxylate]	
46	103 to 106			COc1ccc([C@H]2c3[nH]c4ccccc4c3C[C@H]3C(=O)N(C(C)(C)C)C(=O)N23)c(OC)c1 [Compound 11, (5S,11aS)-2-Tertiarybutyl-5-(2,4-dimethoxyphenyl)-5,6,11,11a-tetrahydro-1-H-imidazo[5,1-6,1]pyrido[3,4-b]indole-1,3-dione]	
				CN1CC(=O)N2[C@H](c3ccc4c(c3)OCO4)c3[nH]c4ccccc4c3C[C@@H]2C1=O [Tadalafil, tadalafil, reference compound]	99
60	214 to 216			COc1ccc([C@H]2c3[nH]c4ccccc4c3C[C@@H]3C(=O)N(c4ccc(Cl)cc4)C(=O)N23)c(OC)c1 [Compound 14, (5S,11aR)-2-(P-Chlorophenyl)-5-(2,4-dimethoxyphenyl)-5,6,11,11a-tetrahydro-1-H-imidazo[5,1-6,1]pyrido[3,4-b]indole-1,3-dione]	
29	188 to 191			COc1ccc([C@@H]2c3[nH]c4ccccc4c3C[C@H]3C(=O)N(C)C(=S)N23)c(OC)c1 [Compound 17, (5R,11aS)-2-Methyl-1-oxo-5-(2,4-dimethoxyphenyl)-5,6,11,11a-tetrahydro-1H-imidazo[5,1-6,1]pyrido[3,4-b]indole-3(2H)-thione]	
97	192 to 195	360	active PDE5 inhibitors	CCN1C(=O)[C@@H]2Cc3c([nH]c4ccccc34)[C@@H](c3ccc(OC)cc3OC)N2C1=O [Compound 8, (5R,11aS)-2-Ethyl-5-(2,4-dimethoxyphenyl)-5,6,11,11a-tetrahydro-1-H-imidazo[5,1-6,1]pyrido[3,4-b]indole-1,3-dione]	
54	217 to 220			CCN1C(=O)[C@@H]2Cc3c([nH]c4ccccc34)[C@H](c3ccc(OC)cc3OC)N2C1=O [Compound 7, (5S,11aS)-2-Ethyl-5-(2,4-dimethoxyphenyl)-5,6,11,11a-tetrahydro-1-H-imidazo[5,1-6,1]pyrido[3,4-b]indole-1,3-dione]	
58	224 to 227			C=CCN1C(=O)[C@H]2Cc3c([nH]c4ccccc34)[C@H](c3ccc(OC)cc3OC)N2C1=S [Compound 20, (5S,11aR)-2-Allyl-1-oxo-5-(2,4-dimethoxyphenyl)-5,6,11,11a-tetrahydro-1H-imidazo[5,1-6,6,1]pyrido[3,4-b]indole-3(2H)-thione]	
75	148 to 150	6400		COC(=O)[C@@H]1Cc2c([nH]c3ccccc23)[C@@H](c2ccc(OC)cc2OC)N1 [Compound 4, (1R,3S) Methyl-1-(2,4-dimethoxyphenyl)-2,3,4,9-tetrahydro-1-H-pyrido[3,4-b]indole-3-carboxylate]	
83	108 to 110	2400	active PDE5 inhibitors	COc1ccc([C@@H]2c3[nH]c4ccccc4c3C[C@@H]3C(=O)N(C(C)(C)C)C(=O)N23)c(OC)c1 [Compound 9, (5R,11aR)-2-Tertiarybutyl-5-(2,4-dimethoxyphenyl)-5,6,11,11a-tetrahydro-1-H-imidazo[5,1-6,1]pyrido[3,4-b]indole-1,3-dione]	
55	88 to 90			COC(=O)[C@@H]1Cc2c([nH]c3ccccc23)[C@H](c2ccc(OC)cc2OC)N1 [Compound 3, (1S,3S) Methyl-1-(2,4-dimethoxyphenyl)-2,3,4,9-tetrahydro-1-H-pyrido[3,4-b]indole-3-carboxylate]	
